Tested on: Puccinia recondita
Assay: Curative activity against Puccinia recondita on wheat (leaf rust of wheat)
Type: in vivo, Puccinia recondita on wheat c.v. Frühgold
Settings: 16 ppm, sprayed the day after infection, 7 days in greenhouse, untreated plants 80% infection
Experimental: The active ingredients, separately or together, were prepared as a 10% strength emulsion in a mixture of 70% by weight of cyclohexanone, 20% by weight of Nekanil® LN (Lutensol® AP6, wetting agent having emulsifying and dispersant action based on ethoxylated alkylphenols) and 10% by weight of Wettol® EM (nonionic emulsifier based on ethoxylated castor oil) and diluted with water to the desired concentration.
Leaves of potted wheat seedlings c.v. “Frühgold” were dusted with leaf rust spores (Puccinia recondite). The pots were then placed for 24 hours into a chamber with high atmospheric humidity (90 to 95%) at 20 to 25° C. During this time, the spores germinated, and the germinal tubes penetrated the leaf tissue. The next day, the infected plants were sprayed to runoff point with an aqueous spray liquor which had been prepared using a stock solution of 10% of active ingredient, 63% of cyclohexanone and 27% of emulsifier. After the spray coating had dried on, the test plants were cultivated for 7 days in a greenhouse at from 20 to 22° C. and a relative atmospheric humidity of 65 to 70%. The extent of rust development on the leaves was then determined.

SMILES	% infection (rust development on the leaves)
CNC(=O)C(=NOC)c1ccccc1COc1ccc(-n2nc(C)cc2C)cc1Cl [I-11, N-methyl-2-{2-chloro-[4-(3,5-dimethyl)pyrazol-1-yl]phenoxymethylene}-phenylglyoxamide O-methyloxime]	no infection
CON=C(C(=O)OC)c1ccccc1COc1ccc(-n2nc(C)cc2C)cc1Cl [I-12, methyl 2-{2-chloro-[4-(3,5-dimethyl)-pyrazol-1-yl]phenoxymethylene}phenylglyoxylate O-methyloxime]	no infection

Reference: patent US6583090B1, “Hetaryl-substituted benzyl phenyl ethers, method for the production thereof, and their use for combating harmful fungi and animal pests” (priority 1998, dated 2003)
